Experimental data published in patent US20220257774A1, “AROMATIC AMINE AR AHD BET TARGETING PROTEIN DEGRADATION CHIMERA COMPOUND AND USE” (HINOVA PHARMACEUTICALS INC., priority 2019, published 2022).
Like-named read-outs stand apart in the source and are kept apart here.

How the values were obtained:
Type in all cases: cell-based
[1] = molecular target: T1, BRD4 (Homo sapiens, UniProt O60885); assay: Down-regulation/degradation of BRD4 determined by Western blot in CWR22RV1 cells; conditions: concentration 100 nM, 24 h
T1 construct: CWR22RV1 cells were subcultured in cell culture media; endogenous in cells; host or cells: CWR22RV1 cells
Description: (§1) The Down-Regulation on the Protein Expression of Androgen Receptors AR and Brd4 Determined by Western Blot CWR22RV1 cells (National Collection of Authenticated Cell Cultures. TCHu100) FBS (Gibco, Cat. No. 10099-141) 0.01M PBS (Biosharp. Cat. No. 162262) RIPM1640 (Hyclone, Cat. No. 308090.01) Penicillin-Streptomycin (Hyclone. Cat. No. SV30010) DMSO (Sigma. Cat. No. D5879) Centrifuge tube, 15 ml (Excell Bio. Cat. No. CS015-0001) Cell culture plate (Excell Bio. Cat. No. CS016-0128) 6-well cell culture cluster (Corning, Cat. No. 3516) RIPA lysate buffer (Beyotime, Cat. No. P0013B) Protein loading buffer (Beyotime, Cat. No. P0015L) CA protein assay kit (Beyotime, Cat. No. P0012) SDS-PAGE gel preparation kit (Chengdu Baihe Technology Co., Ltd. Cat. No. PG112) Anti-β-tubulin mouse mAb (Zen Bioscience, Cat. No. 200608) Androgen Receptor ([…]) XP Rabbit mAb (CST. Cat. No. 5153) Anti-cMyc(D3N8F) Rabbit mAb (CST. Cat. No. 13987) Anti-BRD4(E2A7X) rabbit mAb (CST, Cat. No. 13440) Peroxidase Affinipure(HRP) Goat Anti-Mouse IgG (Zen Bioscience, Cat. No. 511103) Peroxidase Affinipure(HRP) Goat Anti-Rabbit IgG (Zen Bioscience, Cat. No. 511203) TBST (Biosharp. Cat. No. B[…]) ECL chemiluminescence kit (Beyotime, Cat. No. […]1 cells were subcultured in cell culture media, and then the cells in good growth condition were seeded in a 6-well plate at 2 ml/well (1×10^6 cells/well), and cultured overnight in a 37° C., 5% CO2 cell incubator. 2) The drug was prepared as a 10 mM stock solution with dimethyl sulfoxide (DMSO). […] The plate was gently tapped to thoroughly mix. In addition, the experiment included negative control wells (containing equal amount of DMSO) and positive control wells. 3) After culturing 24 hi, the cells were lysed with RIPA cell lysate, and the protein was extracted. […] The first antibody (Androgen Receptor ([…]) XP Rabbit mAb. Anti-cMyc(D3N8F) Rabbit mAb, Anti-BRD4(E2A7X) rabbit mAb and Anti-β-Tubulin Mouse mAb) was added and incubated overnight at 4° C. The membrane was rinsed with TBST solution three times, 10 min for each time. The secondary antibody (horseradish peroxidase labeled goat anti mouse IgG) was added and incubated at room temperature for 2 h, and then the membrane was washed with TBST solution three times, 10 m for each time. Finally. ECL chemiluminescence solution was added, and then photos were taken with automatic chemiluminescence instrument to collect pictures for analysis.

[2] = tested on: LNCaP/AR cells; assay: Inhibition of the proliferation of LNCap/AR cells (CCK-8); conditions: read-out: LNCap/AR IC50
Outline: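 Proliferation was read by CCK-8 (OD 450 nm, 1 h) after six days of compound exposure. Cells were seeded at 1000 per well overnight, then dosed in duplicate over nine 3-fold steps with a top final concentration of 10 μM in 0.1% DMSO; IC50 was fitted from inhibition curves.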

[3] = tested on: 22RV1 cells; assay: Inhibition of the proliferation of drug-resistant prostate cancer cell 22RV1 (CCK-8); conditions: 22RV1 cells (enzalutamide-resistant), same method
Outline: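 22RV1 cells, 1000/well in RPMI1640 with 10% FBS, treated in duplicate with 9-point 3-fold dilutions from 10 μM (0.1% DMSO final). After 6 days at 37 °C, CCK-8 added for 1 h and OD450 read. IC50 from dose-response inhibition fit.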

[4] = tested on: Androgen receptor (AR); assay: Down-regulation/degradation of AR determined by Western blot in CWR22RV1 cells; conditions: concentration 100 nM, 24 h
Description: as §1

[5] = 144 h, LNCaP/AR cells, 6 days culture, CCK-8

| SMILES | IC50 [2, 5] [nM] | IC50 ([3]; Homo sapiens) [nM] | IC50 ([2]; LNCaP/AR cells, 6 days culture, CCK-8) [nM] | IC50 [3] [nM] | BRD4 (% degradation) [1] | AR (% degradation) [4] | IC50 ([2]; LNCaP/AR, 144 h) [nM] |
| --- | --- | --- | --- | --- | --- | --- | --- |
| Cc1ccc(-c2c(C)noc2C)cc1N(CCCCCNc1ccc2c(c1)CN(C1CCC(=O)NC1=O)C2=O)c1ccc(C#N)c(Cl)c1 (stereo not shown) [Compound 63, 2-chloro-4-((5-(3,5-dimethylisoxazol-4-yl)-2-methylphenyl)(5-((2-(2,6-dioxopiperidin-3-yl)-1-oxoisoindolin-5-yl)amino)pentyl)amino)benzonitrile] | – | < 100 | – | – | C (49%-20% of the target protein was degraded) | C (49%-20% of the target protein was degraded) | < 100 |
| Cc1ccc(-c2c(C)noc2C)cc1N(CC1CC(Nc2cc3c(cc2F)C(=O)N(C2CCC(=O)NC2=O)C3)C1)c1ccc(C2(C#N)CC2)cc1 (stereo not shown) [Compound 39] | 501 to 2000 | < 100 | – | – | C (49%-20% of the target protein was degraded) | C (49%-20% of the target protein was degraded) | – |
| Cc1ccc(-c2c(C)noc2C)cc1N(CCCOC1(C)CN(c2ccc3c(c2)C(=O)N(C2CCC(=O)NC2=O)C3=O)C1)c1ccc(C2(C#N)CC2)cc1 (stereo not shown) [Compound 140] | 501 to 2000 | 101 to 500 | – | – | C (49%-20% of the target protein was degraded) | D (<20% of the target protein was degraded) | – |
| Cc1ccc(-c2c(C)noc2C)cc1N(c1ccc(C2(C#N)CC2)cc1)C1CN([C@H]2C[C@@H](Nc3cc4c(cc3F)CN([C@H]3CCC(=O)NC3=O)C4=O)C2)C1 [Compound 68, 1-(4-((5-(3,5-dimethylisoxazol-4-yl)-2-methylphenyl)(1-((1s,3s)-3-((2-(2,6-dioxopiperidin-3-yl)-6-fluoro-3-oxoisoindolin-5-yl)amino)cyclobutyl)azetidin-3-yl)amino)phenyl)cyclopropane-1-nitrile] | – | – | < 100 | < 100 | A (>80% of the target protein was degraded) | D (<20% of the target protein was degraded) | – |

More lines, main results first:

| IC50 [2, 5] [nM] | IC50 ([3]; Homo sapiens) [nM] | IC50 ([2]; LNCaP/AR cells, 6 days culture, CCK-8) [nM] | IC50 [3] [nM] | SMILES | BRD4 (% degradation) [1] | AR (% degradation) [4] | IC50 ([2]; LNCaP/AR, 144 h) [nM] |
| --- | --- | --- | --- | --- | --- | --- | --- |
| 101 to 500 | < 100 | – | – | Cc1ccc(-c2c(C)noc2C)cc1N(CCCOC1CN(c2cc3c(cc2F)C(=O)N(C2CCC(=O)NC2=O)C3=O)C1)c1ccc(C2(C#N)CC2)cc1 (stereo not shown) [Compound 120, 1-(4-((5-(3,5-dimethylisoxazol-4-yl)-2-methylphenyl)(3-((1-(2-(2,6-dioxopiperidin-3-yl)-6-fluoro-1,3-dioxoisoindol-5-yl)azetidin-3-yl)oxy)propyl)amino)phenyl)cyclopropane-1-carbonitrile] | B (79%-50% of the target protein was degraded) | D (<20% of the target protein was degraded) | – |
| < 100 | < 100 | – | – | Cc1ccc(-c2c(C)noc2C)cc1N(C[C@H]1CC[C@H](CNc2ccc3c(c2)C(=O)N(C2CCC(=O)NC2=O)C3)CC1)c1ccc(C2(C#N)CC2)cc1 (stereo partly shown) [Compound 193] | B (79%-50% of the target protein was degraded) | D (<20% of the target protein was degraded) | – |
| < 100 | < 100 | – | – | Cc1ccc(-c2c(C)noc2C)cc1N(C[C@H]1CC[C@H](CNc2cc3c(cc2F)CN(C2CCC(=O)NC2=O)C3=O)CC1)c1ccc(C2(C#N)CC2)cc1 (stereo partly shown) [Compound 168] | A (>80% of the target protein was degraded) | C (49%-20% of the target protein was degraded) | – |
